For 7 molecules, AC50, EC50 and IC50 results are on record in ChEMBL document CHEMBL1201862, “PubChem BioAssay data set” (2004).

Activity calls are given as the source filed them. Some results are limits rather than exact numbers.

For data set [1], the target named is T1, Microphthalmia-associated transcription factor (Homo sapiens, UniProt O75030).
T1 sequence (O75030 whole entry): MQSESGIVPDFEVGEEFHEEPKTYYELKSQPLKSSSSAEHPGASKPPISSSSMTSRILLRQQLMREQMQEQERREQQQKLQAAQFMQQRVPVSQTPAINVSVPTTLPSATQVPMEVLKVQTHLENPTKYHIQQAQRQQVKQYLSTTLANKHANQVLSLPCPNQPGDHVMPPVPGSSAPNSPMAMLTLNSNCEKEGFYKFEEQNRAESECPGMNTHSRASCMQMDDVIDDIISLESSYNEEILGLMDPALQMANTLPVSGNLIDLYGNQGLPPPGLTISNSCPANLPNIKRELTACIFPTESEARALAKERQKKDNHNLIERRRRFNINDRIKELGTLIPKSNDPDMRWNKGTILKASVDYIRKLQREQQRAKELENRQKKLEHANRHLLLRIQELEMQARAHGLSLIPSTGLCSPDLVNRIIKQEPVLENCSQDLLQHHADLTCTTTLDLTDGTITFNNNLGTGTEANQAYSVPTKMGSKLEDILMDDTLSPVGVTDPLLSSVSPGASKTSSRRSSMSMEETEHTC
Put plainly: reducers of TRPM1 reporter luminescence, concentration series – cell-based, SK-MEL-5, cherry-picked, set 3, MITF inhibitor project, dose response (AID 493073).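 Further: SK-MEL-5 melanoma cells with luciferase driven by the MITF target TRPM1 promoter.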 The class given is functional.

The target in a further data set is Cytochrome P450 2C19 (Homo sapiens, UniProt P33261). Put plainly: Cytochrome panel assay with activity outcomes. Panel member name: p450-cyp2c19 Compounds with AC50 equal or less than 10 uM are considered active. The data set is classed as functional. As to conditions: read-out: AC50.
Another data set addresses Cytochrome P450 2D6 (Homo sapiens, UniProt P10635).
The target in data set [2] is T2, RNA-binding protein pos-1 (Caenorhabditis elegans, UniProt G5EF15).
T2 sequence (G5EF15 whole entry): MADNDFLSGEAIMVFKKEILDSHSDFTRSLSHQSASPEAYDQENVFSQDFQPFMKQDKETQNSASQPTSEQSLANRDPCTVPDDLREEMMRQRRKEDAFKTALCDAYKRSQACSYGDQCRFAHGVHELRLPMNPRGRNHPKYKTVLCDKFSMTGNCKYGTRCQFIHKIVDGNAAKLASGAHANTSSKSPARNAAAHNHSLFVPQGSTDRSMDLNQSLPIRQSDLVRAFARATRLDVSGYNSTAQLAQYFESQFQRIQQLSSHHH
Kind of data set: disruptors of C. elegans POS-1 RNA interaction – biochemical, fluorescence polarization, dose response (AID 1964).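 Further: purified POS-1 fused to maltose binding protein made in E. coli; potency of compounds blocking POS-1 binding to fluorescent RNA.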 A general note: Polarisation of emitted light reports the rotation of a fluorescent probe.

For data set [3], the target named is T3, SUMO-activating enzyme (Homo sapiens, UniProt Q9UBT2). Kind of data set: blockers of SAE1/SAE2–UBC9 SUMO transfer – biochemical, HTRF, uHTS, primary screen (AID 2006). The data set is classed as protein-complex assay.
Another data set addresses T4, Leucine aminopeptidase (Plasmodium falciparum 3D7, UniProt Q8IL11).
T4 sequence (Q8IL11 whole entry): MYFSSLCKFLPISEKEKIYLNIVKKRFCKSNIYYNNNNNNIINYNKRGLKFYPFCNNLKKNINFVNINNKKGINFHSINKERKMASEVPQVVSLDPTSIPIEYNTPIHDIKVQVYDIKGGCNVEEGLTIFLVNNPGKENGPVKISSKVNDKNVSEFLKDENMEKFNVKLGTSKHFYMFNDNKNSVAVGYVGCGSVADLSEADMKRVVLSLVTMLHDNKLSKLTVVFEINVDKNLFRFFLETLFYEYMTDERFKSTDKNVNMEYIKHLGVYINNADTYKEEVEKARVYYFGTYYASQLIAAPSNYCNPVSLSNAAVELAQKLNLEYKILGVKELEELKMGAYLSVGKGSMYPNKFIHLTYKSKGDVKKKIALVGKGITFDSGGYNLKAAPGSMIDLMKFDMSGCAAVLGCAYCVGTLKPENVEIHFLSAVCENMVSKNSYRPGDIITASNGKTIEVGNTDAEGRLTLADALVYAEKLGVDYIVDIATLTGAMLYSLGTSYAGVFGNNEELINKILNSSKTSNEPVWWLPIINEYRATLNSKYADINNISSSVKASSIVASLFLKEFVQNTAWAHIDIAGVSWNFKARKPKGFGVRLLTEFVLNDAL
Put plainly: P. falciparum M17LAP inhibitors, primary screen, biochemical, fluorogenic H-Leu-NHMec substrate, 1536-well (AID 1619). The class given is functional.

A further data set has as its target Albumin (Bos taurus, UniProt P02769). Put plainly: Counterscreen for inhibitors of T-cell receptor (TCR)-CD3 interaction: Fluorescence-based biochemical high throughput dose response assay to identify inhibitors of T-cell receptor (TCR)-CD3 interaction using a TAMRA-labeled BSA probe. The data set is classed as functional.
In data set [4] the target is T5, Zinc finger protein mex-5 (Caenorhabditis elegans, UniProt Q9XUB2).
T5 sequence (Q9XUB2 whole entry): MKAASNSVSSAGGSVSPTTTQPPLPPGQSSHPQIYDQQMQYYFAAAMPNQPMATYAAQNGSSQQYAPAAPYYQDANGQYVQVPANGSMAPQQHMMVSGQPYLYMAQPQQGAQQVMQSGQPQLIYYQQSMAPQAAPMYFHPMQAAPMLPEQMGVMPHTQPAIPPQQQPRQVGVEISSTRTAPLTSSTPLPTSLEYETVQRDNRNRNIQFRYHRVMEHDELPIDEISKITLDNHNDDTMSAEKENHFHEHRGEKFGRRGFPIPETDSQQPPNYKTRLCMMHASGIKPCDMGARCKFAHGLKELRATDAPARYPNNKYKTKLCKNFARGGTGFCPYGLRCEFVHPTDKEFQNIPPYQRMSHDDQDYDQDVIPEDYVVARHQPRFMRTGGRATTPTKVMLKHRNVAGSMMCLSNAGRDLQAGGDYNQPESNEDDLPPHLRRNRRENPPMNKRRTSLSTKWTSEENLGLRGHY
Kind of data set: potency of MEX-5 RNA-binding blockers – biochemical, C. elegans, fluorescence polarization, dose response (AID 1960).

For the next data set, the target named is Nonstructural protein 1 (Influenza A virus, UniProt Q194T2). The data set is classed as functional, Influenza A virus (A/California/07/2009(H1N1)).
The next data set concerns Streptococcus. Put plainly: GAS UMAA2166 growth inhibition – luminescence, BacTiterGlo, counter-screen for streptokinase expression inhibitor project, dose response (AID 1915).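 Further: potency for reduction of bacterial viability or growth.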 The class given is functional, organism-based. On the technique in general: A counterscreen serves to expose hits that act by an unwanted route or on another target.
For data set [5], the system named is Streptococcus sp. 'group A'. Kind of data set: Streptococcus pyogenes SK(-)GAS viability under kanamycin – luminescence, BacTiterGlo, confirmation, counter-screen for streptokinase expression inhibitor project, dose response (AID 1900). The class given is functional, organism-based.
Data set [6] has as its target T3, SUMO-activating enzyme. Put plainly: blockers of UBC9-mediated SUMO conjugation – biochemical, AlphaScreen, SUMOylation inhibitor project, confirmation (AID 2018). The class given is functional. Background: In Alpha technology, singlet oxygen from a donor bead excites a nearby acceptor bead.
In another data set the target is T6, Aminopeptidase N (Plasmodium falciparum FcB1/Columbia, UniProt O96935).
T6 sequence (O96935 whole entry): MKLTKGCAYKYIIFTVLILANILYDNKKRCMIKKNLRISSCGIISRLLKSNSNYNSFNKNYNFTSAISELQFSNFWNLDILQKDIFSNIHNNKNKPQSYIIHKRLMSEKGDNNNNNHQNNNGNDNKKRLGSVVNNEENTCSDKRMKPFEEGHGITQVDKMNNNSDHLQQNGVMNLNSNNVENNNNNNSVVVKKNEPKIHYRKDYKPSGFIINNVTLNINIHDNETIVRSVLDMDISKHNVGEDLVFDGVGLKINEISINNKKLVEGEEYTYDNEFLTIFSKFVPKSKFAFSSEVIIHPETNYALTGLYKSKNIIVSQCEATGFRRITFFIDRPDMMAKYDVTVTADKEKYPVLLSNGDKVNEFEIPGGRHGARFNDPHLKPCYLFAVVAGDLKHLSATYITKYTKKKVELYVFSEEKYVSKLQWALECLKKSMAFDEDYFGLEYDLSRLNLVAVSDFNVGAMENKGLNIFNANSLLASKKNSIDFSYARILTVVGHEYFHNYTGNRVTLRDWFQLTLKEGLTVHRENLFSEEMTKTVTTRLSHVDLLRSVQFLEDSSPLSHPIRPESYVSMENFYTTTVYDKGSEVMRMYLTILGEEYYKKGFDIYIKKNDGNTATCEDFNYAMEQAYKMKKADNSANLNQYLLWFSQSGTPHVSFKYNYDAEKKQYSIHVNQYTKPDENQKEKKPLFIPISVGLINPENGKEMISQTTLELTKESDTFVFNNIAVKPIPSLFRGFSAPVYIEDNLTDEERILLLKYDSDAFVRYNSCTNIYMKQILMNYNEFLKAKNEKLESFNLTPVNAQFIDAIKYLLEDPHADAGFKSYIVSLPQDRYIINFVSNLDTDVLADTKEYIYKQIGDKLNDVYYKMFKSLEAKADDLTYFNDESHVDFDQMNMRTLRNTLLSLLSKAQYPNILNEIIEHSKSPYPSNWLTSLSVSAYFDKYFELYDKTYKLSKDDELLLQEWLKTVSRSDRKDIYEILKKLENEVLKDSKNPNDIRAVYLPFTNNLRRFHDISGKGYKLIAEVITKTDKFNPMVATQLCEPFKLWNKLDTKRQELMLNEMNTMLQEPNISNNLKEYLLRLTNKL
Put plainly: malaria alanyl aminopeptidase activity blockers – biochemical, fluorogenic H-Leu-NHMec substrate, 1536-well (AID 1445). Also noted: species or system Plasmodium falciparum 3D7, 3D7.

Another data set deals with T7, Bcl-2-related protein A1 (Mus musculus, UniProt Q07440).
T7 sequence (Q07440 whole entry): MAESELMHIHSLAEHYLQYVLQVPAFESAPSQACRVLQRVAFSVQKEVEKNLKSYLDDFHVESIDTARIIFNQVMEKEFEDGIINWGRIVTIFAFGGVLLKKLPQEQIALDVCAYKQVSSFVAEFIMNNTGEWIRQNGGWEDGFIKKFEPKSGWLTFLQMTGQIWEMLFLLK
The data set is classed as functional.

Data set [7] concerns the target T8, Ubiquitin-conjugating enzyme E2 N (Homo sapiens, UniProt P61088).
T8 sequence (P61088 whole entry): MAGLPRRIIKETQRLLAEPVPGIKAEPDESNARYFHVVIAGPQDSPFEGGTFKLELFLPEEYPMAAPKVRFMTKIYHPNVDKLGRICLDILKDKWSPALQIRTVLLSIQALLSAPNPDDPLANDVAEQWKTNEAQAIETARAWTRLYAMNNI
The data set is classed as functional.

Data set [8] addresses T8, Ubiquitin-conjugating enzyme E2 N. The class given is functional. This is another data set of the same source.
The next data set concerns the target T9, Cytochrome P450 1A2 (Homo sapiens, UniProt P05177).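 Further: PubChem cytochrome P450 panel assay, CYP1A2 panel member.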
T9 sequence (P05177 whole entry): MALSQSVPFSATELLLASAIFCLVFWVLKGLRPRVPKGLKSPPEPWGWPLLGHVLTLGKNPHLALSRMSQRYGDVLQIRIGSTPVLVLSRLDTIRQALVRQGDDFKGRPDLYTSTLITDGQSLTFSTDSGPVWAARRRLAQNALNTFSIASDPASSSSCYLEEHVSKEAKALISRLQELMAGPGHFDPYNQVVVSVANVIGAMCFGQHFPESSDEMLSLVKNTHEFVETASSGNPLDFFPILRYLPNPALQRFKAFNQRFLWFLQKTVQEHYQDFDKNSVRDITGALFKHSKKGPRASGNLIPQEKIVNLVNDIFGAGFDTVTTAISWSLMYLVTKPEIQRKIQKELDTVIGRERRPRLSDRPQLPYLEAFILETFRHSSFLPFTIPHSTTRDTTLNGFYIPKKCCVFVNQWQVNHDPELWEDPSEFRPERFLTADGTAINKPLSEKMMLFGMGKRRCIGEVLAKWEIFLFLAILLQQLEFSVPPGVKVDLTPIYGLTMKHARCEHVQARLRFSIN

Chain of Cytochrome P450 2D6 (P10635 whole entry): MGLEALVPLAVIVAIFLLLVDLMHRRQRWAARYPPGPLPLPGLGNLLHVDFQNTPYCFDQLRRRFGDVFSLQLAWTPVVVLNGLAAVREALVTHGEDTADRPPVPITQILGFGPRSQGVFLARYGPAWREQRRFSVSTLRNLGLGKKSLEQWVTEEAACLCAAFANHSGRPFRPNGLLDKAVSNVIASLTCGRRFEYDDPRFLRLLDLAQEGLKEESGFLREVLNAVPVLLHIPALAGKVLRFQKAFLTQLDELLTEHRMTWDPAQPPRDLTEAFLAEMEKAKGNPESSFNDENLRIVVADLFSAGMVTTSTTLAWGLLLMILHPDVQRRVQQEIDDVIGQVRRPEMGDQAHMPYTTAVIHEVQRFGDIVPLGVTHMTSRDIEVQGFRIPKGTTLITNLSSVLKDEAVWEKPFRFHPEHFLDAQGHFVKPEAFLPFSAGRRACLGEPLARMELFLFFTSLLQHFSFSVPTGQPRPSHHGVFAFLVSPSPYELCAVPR
Chain of Cytochrome P450 2C19 (P33261 whole entry): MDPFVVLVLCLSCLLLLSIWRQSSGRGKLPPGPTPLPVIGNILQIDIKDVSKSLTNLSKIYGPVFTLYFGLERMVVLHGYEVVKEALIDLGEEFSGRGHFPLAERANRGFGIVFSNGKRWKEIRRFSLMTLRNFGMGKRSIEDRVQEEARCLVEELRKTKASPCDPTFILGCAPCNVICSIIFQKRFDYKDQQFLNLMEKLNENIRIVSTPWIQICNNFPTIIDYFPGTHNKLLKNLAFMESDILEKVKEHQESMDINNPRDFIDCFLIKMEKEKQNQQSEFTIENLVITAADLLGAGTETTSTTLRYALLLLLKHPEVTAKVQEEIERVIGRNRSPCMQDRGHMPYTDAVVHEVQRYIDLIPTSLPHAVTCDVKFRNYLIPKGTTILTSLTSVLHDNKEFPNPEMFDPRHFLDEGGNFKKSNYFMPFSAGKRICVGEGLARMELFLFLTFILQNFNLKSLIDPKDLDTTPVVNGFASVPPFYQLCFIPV
T3 sequence (Q9UBE0 whole entry): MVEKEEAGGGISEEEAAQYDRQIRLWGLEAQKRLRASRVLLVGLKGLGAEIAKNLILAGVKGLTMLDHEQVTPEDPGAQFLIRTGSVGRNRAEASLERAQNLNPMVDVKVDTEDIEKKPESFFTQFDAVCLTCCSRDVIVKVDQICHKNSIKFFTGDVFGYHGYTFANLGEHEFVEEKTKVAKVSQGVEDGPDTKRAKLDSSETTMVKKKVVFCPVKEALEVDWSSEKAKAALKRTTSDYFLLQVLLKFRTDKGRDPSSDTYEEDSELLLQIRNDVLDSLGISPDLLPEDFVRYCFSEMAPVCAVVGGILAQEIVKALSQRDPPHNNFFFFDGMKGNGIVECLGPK
T3 sequence (Q9UBT2 whole entry): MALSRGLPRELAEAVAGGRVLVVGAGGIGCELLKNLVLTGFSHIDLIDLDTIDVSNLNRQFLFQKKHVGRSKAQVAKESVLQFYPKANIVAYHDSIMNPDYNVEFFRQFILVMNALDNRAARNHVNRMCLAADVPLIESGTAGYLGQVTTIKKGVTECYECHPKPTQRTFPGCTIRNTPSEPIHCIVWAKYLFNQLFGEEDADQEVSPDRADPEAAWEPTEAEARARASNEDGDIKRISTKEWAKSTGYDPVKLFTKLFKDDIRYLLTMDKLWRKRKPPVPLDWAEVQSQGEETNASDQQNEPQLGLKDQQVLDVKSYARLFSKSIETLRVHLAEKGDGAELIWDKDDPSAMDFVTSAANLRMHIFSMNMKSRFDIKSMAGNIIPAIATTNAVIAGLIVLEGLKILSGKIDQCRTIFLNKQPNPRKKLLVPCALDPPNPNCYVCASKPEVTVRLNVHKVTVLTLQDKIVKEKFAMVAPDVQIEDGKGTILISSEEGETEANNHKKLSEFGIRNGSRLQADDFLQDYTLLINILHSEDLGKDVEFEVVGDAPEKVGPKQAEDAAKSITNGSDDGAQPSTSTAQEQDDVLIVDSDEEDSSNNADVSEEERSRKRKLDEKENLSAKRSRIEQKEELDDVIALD
Chain of Albumin (P02769 whole entry): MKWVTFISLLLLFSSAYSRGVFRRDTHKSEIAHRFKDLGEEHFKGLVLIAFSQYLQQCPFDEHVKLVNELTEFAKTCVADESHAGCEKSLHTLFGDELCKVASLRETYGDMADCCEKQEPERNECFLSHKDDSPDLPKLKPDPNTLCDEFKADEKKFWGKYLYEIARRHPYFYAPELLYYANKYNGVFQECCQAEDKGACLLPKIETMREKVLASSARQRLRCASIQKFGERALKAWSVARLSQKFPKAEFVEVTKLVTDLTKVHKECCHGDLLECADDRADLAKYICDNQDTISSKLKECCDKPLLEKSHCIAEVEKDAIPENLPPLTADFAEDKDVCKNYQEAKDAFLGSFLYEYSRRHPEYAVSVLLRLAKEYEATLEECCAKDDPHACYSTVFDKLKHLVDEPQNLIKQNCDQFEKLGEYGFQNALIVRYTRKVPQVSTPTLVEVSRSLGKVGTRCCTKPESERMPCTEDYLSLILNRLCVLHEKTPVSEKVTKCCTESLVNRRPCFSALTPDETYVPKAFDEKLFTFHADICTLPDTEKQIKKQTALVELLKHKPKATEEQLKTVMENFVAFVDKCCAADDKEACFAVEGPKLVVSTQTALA
Chain of Nonstructural protein 1 (Q194T2 whole entry): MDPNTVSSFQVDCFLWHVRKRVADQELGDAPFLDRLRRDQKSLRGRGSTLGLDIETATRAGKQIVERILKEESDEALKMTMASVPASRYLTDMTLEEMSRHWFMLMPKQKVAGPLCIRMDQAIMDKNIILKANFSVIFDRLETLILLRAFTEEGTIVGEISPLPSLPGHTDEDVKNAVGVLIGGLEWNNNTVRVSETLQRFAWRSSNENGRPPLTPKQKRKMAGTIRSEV

Consider `[2H]C(CCOS(N)(=O)=O)c1ccc(C(C)(C)C)cc1` (stereo not drawn), for which the AC50 in data set [1] is 0.487 µM (active).

Regarding `CCOc1ccc(N(CC(=O)NCc2ccc(OC)cc2)S(=O)(=O)c2c(C)noc2C)cc1`, the AC50 at Cytochrome P450 2C19 was 0.282 µM (inconclusive); on Cytochrome P450 2D6, “inconclusive”.

Take `O=C1NC(=O)N(Cc2ccco2)C(=O)/C1=C/NNC(=O)c1ccccc1O`: the EC50 in data set [2] is 15.5 µM (active); in [4] it was 16.9 µM (active); in the data set with Streptococcus, 6.03 µM (active); in data set [5], 3 µM (active). In addition, the IC50 was 15 µM (active) at SUMO-activating enzyme [3]; 50.3 µM (active) at Leucine aminopeptidase; > 94 µM (inactive) at Albumin; 42.3 µM (active) on Nonstructural protein 1; 2.29 µM (active) at SUMO-activating enzyme [6]; 26.2 µM (active) on Aminopeptidase N.

`C=CCNC(=S)Nc1sc2c(c1C(=O)OCC)CCN(C(=O)OCC)C2`: the values for the IC50 (at Bcl-2-related protein A1; in data set [7]; in data set [8]) were > 20 µM (inactive), 12.4 µM (active) and > 20 µM (inactive), respectively.

`O=C(CSc1ccc(Cl)cc1)NC1CCCC1`: the AC50 in data set [1] is 14.2 µM (active).

`C#CCOCCOCCOCCNc1nc(N2CCN(C(=O)[C@H](CCCCN)n3cc([C@@H](N)[C@H](C)CC)nn3)CC2)nc(N2CCN(C(=O)[C@H](CCCCN)n3cc([C@@H](N)CC(N)=O)nn3)CC2)n1`: the IC50 at Bcl-2-related protein A1 was > 20 µM (inactive); in [7], 10.3 µM (active); in data set [8] it was 16.6 µM (active).

`CC1Cc2ccccc2N1C(=O)CSCC(=O)O` (stereo not drawn): the AC50 on Cytochrome P450 2C19 is 11.2 µM (inconclusive); on Cytochrome P450 2D6 it was “inconclusive”; on Cytochrome P450 1A2, 20 µM (inconclusive).

As usually defined, the AC50 is the concentration at which the activity in the assay is half-maximal. In general, EC50 refers to the concentration needed to bring the measured effect to its halfway point. One may read the IC50 as the point on the concentration scale where inhibition reaches its midpoint.
